For data set [1], the system named is HEK293T cells. As to the kind of experiment: Cell viability in the high-throughput screen (cell nuclei numbers). As for the experimental part:
HEK293T cells were plated in 384 well plates at the density of 5,000 cells/well. Cells were treated by 10 μM candidate compounds 30 min before transfection of 15 ng mCherry-FSE-GFP(−1) plasmid DNA in each well. 24 hours after transfection, cell nuclei were stained with Hoechst dye. Cell nuclei, mCherry, and GFP signals were imaged using an automated fluorescent microscope with a 10x objective, and the acquired images were quantified using the CellProfiler image analysis package. Cell nuclei numbers were quantified as the metric for cell viability. Mean GFP and RFP intensity values were measured in all transfected cells, and GFP/mCherry mean intensity ratios were quantified as the metric for PRF efficiency. The mCherry-GFP fusion plasmid and the mCherry-FSE-GFP(0) plasmid were used as positive and negative controls for elevated and reduced GFP/mCherry ratios, respectively.

For data set [2], the system named is SARS-CoV-2 FSE (−1 PRF). As to the kind of experiment: cells. Type of data set: cell-based.
Data set [3] deals with −1 PRF of SARS-CoV-2. Nature of the data set: microbe, parasite or virus in culture. The data set is classed as cell-based.
Where [4] appears, read: 10 μM compound, cell nuclei numbers.
[5] abbreviates: Severe acute respiratory syndrome coronavirus 2, HEK-293T, 24 h; read-out: PERCENT EFFECT 2 (Decreased GFP/Red ratio).
Where [6] appears, read: Severe acute respiratory syndrome coronavirus 2, HEK-293T, 24 h; read-out: PERCENT EFFECT (Increased GFP/Red Ratio).

Where two headings read alike, the source gives them in different places.

As to `Cc1cc(C)c(Nc2ccnc(Nc3ccc(C#N)cc3)n2)c(C)c1` [dapivirine, 4-[[4-[(2,4,6-trimethylphenyl)amino]pyrimidin-2-yl]amino]benzonitrile], the “PERCENT VIABILITY” value in data set [1] (setting [4]) is on record as 36.7%. Moreover, the inhibition at 10 µM in data set [2] (setting [5]) is -51.1%. The activation at 10 µM in data set [2] (setting [6]) amounted to 24%.

Take `C[C@H]1O[C@@H](O[C@H]2[C@@H](O)C[C@H](O[C@H]3[C@@H](O)C[C@H](O[C@H]4CC[C@@]5(C)[C@H](CC[C@@H]6[C@@H]5CC[C@]5(C)[C@@H](C7=CC(=O)OC7)CC[C@]65O)C4)O[C@@H]3C)O[C@@H]2C)C[C@H](O)[C@@H]1O` [digitoxin]: the “PERCENT VIABILITY” value in data set [1] (setting [4]) is 6.9%. The inhibition at 10 µM in data set [2] (setting [5]) was -34.2%. Moreover, the activation at 10 µM in data set [2] (setting [6]) was determined as 16.8%.

On to `CCN1/C(=C/C=C/C=C/c2sc3ccccc3[n+]2CC)Sc2ccccc21.[I-]` [dithiazanine, 3-ethyl-2-[(1Z,3E,5E)-5-(3-ethyl-1,3-benzothiazol-2-ylidene)penta-1,3-dienyl]-1,3-benzothiazol-3-ium iodide], for which the “PERCENT VIABILITY” value in data set [1] (setting [4]) came out at 48.28%. Further, the inhibition at 10 µM in data set [2] (setting [5]) stood at 79.7%. In data set [2] (setting [6]), the activation at 10 µM is -39%.

As to `CCOC(=O)Nc1ccc(NCc2ccc(F)cc2)nc1N` [flupirtine, ethyl N-(2-amino-6-{[(4-fluorophenyl)methyl]amino}pyridin-3-yl)carbamate], the “PERCENT VIABILITY” value in data set [1] (setting [4]) was found to be 110.5%. For the same molecule, the inhibition at 10 µM in data set [2] (setting [5]) was -27.2%. For the same molecule, the activation at 10 µM in data set [2] (setting [6]) was found to be 14.4%.

As to `O=C(Nc1ccc(Cl)cc1)Nc1ccc(Cl)c(C(F)(F)F)c1` [halocarban, 3-(4-chlorophenyl)-1-[4-chloro-3-(trifluoromethyl)phenyl]urea], the “PERCENT VIABILITY” value in data set [1] (setting [4]) worked out at 54.7%. In data set [2] (setting [5]), the inhibition at 10 µM is -48.8%. The activation at 10 µM in data set [2] (setting [6]) was 23.9%.

As to `CC(=O)[C@]1(O)Cc2c(O)c3c(c(O)c2[C@@H](O[C@H]2C[C@H](N)[C@H](O)[C@H](C)O2)C1)C(=O)c1ccccc1C3=O` [idarubicin], the “PERCENT VIABILITY” value in data set [1] (setting [4]) stood at 10.75%. In addition, the inhibition at 10 µM in data set [2] (setting [5]) stood at 76.8%. The activation at 10 µM in data set [2] (setting [6]) was -40.6%.

As for `O=[N+]([O-])c1cc(Cl)cc(-c2cc(Cl)cc([N+](=O)[O-])c2O)c1O` [niclofolan, 4-chloro-2-(5-chloro-2-hydroxy-3-nitrophenyl)-6-nitrophenol], in data set [1] (setting [4]), the “PERCENT VIABILITY” value is 68.0%. Besides, the inhibition at 10 µM in data set [2] (setting [5]) is -36.6%. In addition, the activation at 10 µM in data set [2] (setting [6]) was 17.2%.

For `NCCCNc1ccc2c3c(nn2CCNCCO)-c2c(O)ccc(O)c2C(=O)c13` [piroxantrone, 5-(AMINO-PR-AMINO)-DI-HO-2-(2-(HO-ET-AMINO)-ET)-2H-DIBENZO(CD,G)INDAZOL-ONE], the “PERCENT VIABILITY” value in data set [1] (setting [4]) is given as 91.45%. For the same molecule, the inhibition at 10 µM in data set [2] (setting [5]) came to 88.7%. In addition, the activation at 10 µM in data set [2] (setting [6]) was -43.5%.

Consider `COc1ccc(C[C@H](N)C(=O)NC2[C@@H](O)[C@H](n3cnc4c(N(C)C)ncnc43)O[C@@H]2CO)cc1` (stereo partly drawn) [puromycin, (2S)-2-amino-N-[(2S,4R,5R)-5-(6-dimethylaminopurin-9-yl)-4-hydroxy-2-(hydroxymethyl)oxolan-3-yl]-3-(4-methoxyphenyl)propanamide], for which the “PERCENT VIABILITY” value in data set [1] (setting [4]) was determined as 26.1%; in data set [1] (10 μM compound, cell nuclei numbers, listed as Puromycin), 49.7%. Further, the activation at 10 µM in data set [2] (setting [6]) came to 18.9%.

For the molecule `Cc1cc2nc3c(=O)[nH]c(=O)nc-3n(CC(O)C(O)C(O)CO)c2cc1C` (centres unmarked) [riboflavin, 7,8-dimethyl-10-(2,3,4,5-tetrahydroxypentyl)benzo[g]pteridine-2,4-dione], the “PERCENT VIABILITY” value in data set [1] (setting [4]) came to 187.1%. For the same molecule, the inhibition at 10 µM in data set [2] (setting [5]) was -40%. Besides, the activation at 10 µM in data set [2] (setting [6]) was found to be 19.6%.

With `O=C(Nc1cccc(C(F)(F)F)c1)c1ccccc1O` [salfluverine, 2-hydroxy-N-[3-(trifluoromethyl)phenyl]benzamide], in data set [1] (setting [4]), the “PERCENT VIABILITY” value is reported as 133.5%. Moreover, the inhibition at 10 µM in data set [2] (setting [5]) is -40.2%. Also, the activation at 10 µM in data set [2] (setting [6]) is 18.9%.

As to `Clc1ccc(C(Cn2ccnc2)OCc2ccsc2Cl)c(Cl)c1` (centres unmarked) [tioconazole], the “PERCENT VIABILITY” value in data set [1] (human) was determined as 99.7%. For the same molecule, the inhibition at 10 µM in data set [2] (Severe acute respiratory syndrome coronavirus 2, HEK-293T, 24 h, read-out: PERCENT EFFECT 2 (Decreased GFP/Red ratio)) is -51.1%. Also, the activation at 10 µM in data set [2] (Severe acute respiratory syndrome coronavirus 2, HEK-293T, 24 h, read-out: PERCENT EFFECT (Increased GFP/Red Ratio)) stood at 26.7%.

For the molecule `N[C@@H]1[C@H]2CN(c3nc4c(cc3F)c(=O)c(C(=O)O)cn4-c3ccc(F)cc3F)C[C@@H]12` [trovafloxacin], the “activity on SARS-CoV-2 PRF efficiency, compared with merafloxacin” value in data set [3] (final concentration of 20 μM (FIGS. 3A and 3B)) is reported as “less active”.

As to `O=C(CCCCCCC(=O)Nc1ccccc1)NO` [vorinostat], in data set [1] (setting [4]), the “PERCENT VIABILITY” value turned out to be 20.6%. Also, the inhibition at 10 µM in data set [2] (setting [5]) was -28.8%. In addition, the activation at 10 µM in data set [2] (setting [6]) was found to be 15.2%.

With “GRAMICIDIN [GRAMICIDIN (gramicidin A shown), Chem. Abs]”, the “PERCENT VIABILITY” value is reported as 3.3% in data set [1] (setting [4]) and 10.1% in data set [1] (10 μM compound, cell nuclei numbers, listed as gramicidin). The “PERCENT EFFECT 2 (Decreased GFP/Red ratio)” value in data set [2] is reported as −29.0%; in data set [2] (listed as gramicidin), −38.6%. The “PERCENT EFFECT (Increased GFP/Red Ratio)” value in data set [2] is reported as 15.0%; in data set [2] (listed as gramicidin), 18.9%.

For IVERMECTIN, the “PERCENT VIABILITY” value in data set [1] (setting [4]) turned out to be 223.0%. In addition, in data set [2], the “PERCENT EFFECT 2 (Decreased GFP/Red ratio)” value was −36.2% and the “PERCENT EFFECT (Increased GFP/Red Ratio)” value is on record as 15.8%. For the same molecule, the “validated effect on −1 PRF in dual luciferase-based PRF reporter assay” value in data set [3] (repurchased screen candidates) is reported as “enhancer”.

(Values after patent US20230364074A1, “Compounds and Compositions for Disrupting Programmed Ribosomal Frameshifting” (YALE UNIVERSITY, priority 2020, published 2023).)
